Results as given in the supplement of paper PMC11208160.

Assay: recombinant UMI read abundance after kanamycin selection (control-corrected) (log10(CPM+1)); higher = more efficient recombination; extreme values may be limits of the assay; sequences stand for … in AGTGCAGAGAAAATCGGCCAGTTTTCTCTGCCTGCAGTCCGCATGCCGTGGGACCCCTTGGGTTCTAACCTGTTGCCTAGATTTATGCAGCGGACTGCCTTTCTCCCAAAGTGATAAACCGG…AGGTTGGTTTCACT; site = the 11-nt donor
Outline: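 The measure is log10(CPM+1) for recombinant UMIs. These were PCR-amplified across the donor–target junction and sequenced after Escherichia coli carrying a donor and donor-binding-loop pair library and a target plasmid with T7-inducible IS621 bridge recombinase was plated on IPTG (0.07 mM) plus kanamycin or unselected. CPM were averaged over two replicates and scaled by control-derived factors.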
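Further: IS621 bridge recombinase in Escherichia coli cells against a fixed T5 target plasmid.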

Row | Sequence | recombinant UMI read abundance (log10)
1 | TCGAATTCATGGACCGGTTTTCCCGGTAATCCGTATTTGCC (site TCTAATTCTGG) | 0.193
2 | TCGACACCATGGACCGGTTTTCCCGGTAATCCGTATTTGGC (site TCGACACCTGC) | 0
3 | TCGACGGCATGGACCGGTTTTCCCGGTAATCCGTATTTGAG (site TCGACGGCTCT) | 0.666
4 | TCGACTCCATGGACCGGTTTTCCCGGTAATCCGTATTTGTC (site TCGACTCCTGA) | 0
5 | TCGAGTCCATGGACCGGTTTTCCCGGTAATCCGTATTTGAA (site TCGAGTCCTTT) | 0.307
6 | TCGCCTGCATGGACCGGTTTTCCCGGTAATCCGTATTTGGT (site TCGCCTGCTAC) | 0.0077
7 | TCGCTCCCATGGACCGGTTTTCCCGGTAATCCGTATTTGAA (site TCGCTCCCTTT) | 0.0848
8 | TCGGAAACATGGACCGGTTTTCCCGGTAATCCGTATTTGGT (site TCGGAAACTAC) | 0.88
9 | TCGGAACCATGGACCGGTTTTCCCGGTAATCCGTATTTGTA (site TCGGAACCTTA) | 0
10 | TCGGAATCATGGACCGGTTTTCCCGGTAATCCGTATTTGCG (site TAGGAATCTCG) | 0.861
11 | TCGGAATCATGGACCGGTTTTCCCGGTAATCCGTATTTGCG (site TCGGAATCTCG) | 1.26
12 | TCGGAATCATGGACCGGTTTTCCCGGTAATCCGTATTTGCG (site TGGGAATCTCG) | 0.211
13 | TCGGAATCATGGACCGGTTTTCCCGGTAATCCGTATTTGCG (site TTGGAATCTCG) | 1.03
14 | TCGGACCCATGGACCGGTTTTCCCGGTAATCCGTATTTGAA (site TCGGACCCTTT) | 0.274
15 | TCGGACTCATGGACCGGTTTTCCCGGTAATCCGTATTTGTT (site TCGGACTCTAA) | 3.01
16 | TCGGCCCCATGGACCGGTTTTCCCGGTAATCCGTATTTGTT (site TCGGCCCCTAA) | 0.0126
17 | TCGGGAACATGGACCGGTTTTCCCGGTAATCCGTATTTGAT (site TCGGGAACTAT) | 1.61
18 | TCGGTACCATGGACCGGTTTTCCCGGTAATCCGTATTTGCC (site TCGGTACCTGG) | 0
19 | TCGGTATCATGGACCGGTTTTCCCGGTAATCCGTATTTGGT (site TCGGTATCTAC) | 1.89
20 | TCGGTTGCATGGACCGGTTTTCCCGGTAATCCGTATTTGGC (site TCGGTTGCTGC) | 0.849
21 | TCGTTTCCATGGACCGGTTTTCCCGGTAATCCGTATTTGTA (site TCGTTTCCTTA) | 1.36
22 | TCTAACCCATGGACCGGTTTTCCCGGTAATCCGTATTTGCA (site TCTAACCCTTG) | 0
23 | TCTACACCATGGACCGGTTTTCCCGGTAATCCGTATTTGAC (site TATACACCTGT) | 0.00982
24 | TCTACACCATGGACCGGTTTTCCCGGTAATCCGTATTTGAC (site TCTACACCTGT) | 0
25 | TCTACACCATGGACCGGTTTTCCCGGTAATCCGTATTTGAC (site TGTACACCTGT) | 0

Row | Sequence | recombinant UMI read abundance (log10)
26 | TCTACACCATGGACCGGTTTTCCCGGTAATCCGTATTTGAC (site TTTACACCTGT) | 0
27 | TCTACGTCATGGACCGGTTTTCCCGGTAATCCGTATTTGTC (site TCTACGTCTGA) | 0
28 | TCTACTGCATGGACCGGTTTTCCCGGTAATCCGTATTTGCC (site ACTACTGCTGG) | 0
29 | TCTACTGCATGGACCGGTTTTCCCGGTAATCCGTATTTGCC (site CCTACTGCTGG) | 0
30 | TCTACTGCATGGACCGGTTTTCCCGGTAATCCGTATTTGCC (site GCTACTGCTGG) | 0
31 | TCTACTGCATGGACCGGTTTTCCCGGTAATCCGTATTTGCC (site TCTACTGCTGG) | 0
32 | TCTAGATCATGGACCGGTTTTCCCGGTAATCCGTATTTGCA (site TCTAGATCTTG) | 0
33 | TCTAGGTCATGGACCGGTTTTCCCGGTAATCCGTATTTGTT (site TCTAGGTCTAA) | 0
34 | TCTAGTTCATGGACCGGTTTTCCCGGTAATCCGTATTTGTG (site TCTAGTTCTCA) | 0.0111
35 | TCTATAACATGGACCGGTTTTCCCGGTAATCCGTATTTGCT (site TCTATAACTAG) | 0
36 | TCTGAGCCATGGACCGGTTTTCCCGGTAATCCGTATTTGAT (site TCTGAGCCTAT) | 0.00231
37 | TCTGAGCCATGGACCGGTTTTCCCGGTAATCCGTATTTGTT (site TCTGAGCCTAA) | 0.0283
38 | TCTGCGGCATGGACCGGTTTTCCCGGTAATCCGTATTTGCT (site TATGCGGCTAG) | 0.0269
39 | TCTGCGGCATGGACCGGTTTTCCCGGTAATCCGTATTTGCT (site TCTGCGGCTAG) | 0.246
40 | TCTGCGGCATGGACCGGTTTTCCCGGTAATCCGTATTTGCT (site TGTGCGGCTAG) | 0.0168
41 | TCTGCGGCATGGACCGGTTTTCCCGGTAATCCGTATTTGCT (site TTTGCGGCTAG) | 0.0104
42 | TCTGCTACATGGACCGGTTTTCCCGGTAATCCGTATTTGGT (site TCTGCTACTAC) | 0.0161
43 | TCTGTGGCATGGACCGGTTTTCCCGGTAATCCGTATTTGCC (site TCTGTGGCTGG) | 0
44 | TCTTAACCATGGACCGGTTTTCCCGGTAATCCGTATTTGTG (site TCTTAACCTCA) | 0.0128
45 | TCTTACCCATGGACCGGTTTTCCCGGTAATCCGTATTTGCA (site TCTTACCCTTG) | 0
46 | TCTTACGCATGGACCGGTTTTCCCGGTAATCCGTATTTGGC (site TCTTACGCTGC) | 0
47 | TCTTCAACATGGACCGGTTTTCCCGGTAATCCGTATTTGTG (site TCTTCAACTCA) | 0.0171
48 | TCTTCTACATGGACCGGTTTTCCCGGTAATCCGTATTTGAC (site TCTTCTACTGT) | 0
49 | TCTTCTGCATGGACCGGTTTTCCCGGTAATCCGTATTTGAT (site TCTTCTGCTAT) | 0
50 | TCTTTACCATGGACCGGTTTTCCCGGTAATCCGTATTTGGG (site TCTTTACCTCC) | 0.0231

Row | Sequence | recombinant UMI read abundance (log10)
51 | TCTTTACCATGGACCGGTTTTCCCGGTAATCCGTATTTGTA (site TCTTTACCTTA) | 0.00582
52 | TCTTTGGCATGGACCGGTTTTCCCGGTAATCCGTATTTGTG (site TATTTGGCTCA) | 0.0246
53 | TCTTTGGCATGGACCGGTTTTCCCGGTAATCCGTATTTGTG (site TCTTTGGCTCA) | 0.0151
54 | TCTTTGGCATGGACCGGTTTTCCCGGTAATCCGTATTTGTG (site TGTTTGGCTCA) | 0.0149
55 | TCTTTGGCATGGACCGGTTTTCCCGGTAATCCGTATTTGTG (site TTTTTGGCTCA) | 0.0253
56 | TGAAAATCATGGACCGGTTTTCCCGGTAATCCGTATTTGAT (site TGAAAATCTAT) | 0
57 | TGAAAGACATGGACCGGTTTTCCCGGTAATCCGTATTTGCA (site AGGAAGACTTG) | 2.91
58 | TGAAAGACATGGACCGGTTTTCCCGGTAATCCGTATTTGCA (site TGAAAGACTTG) | 2.45
59 | TGAACACCATGGACCGGTTTTCCCGGTAATCCGTATTTGAC (site TGAACACCTGT) | 0
60 | TGAACACCATGGACCGGTTTTCCCGGTAATCCGTATTTGAC (site TGCACACCTGT) | 0
61 | TGAACACCATGGACCGGTTTTCCCGGTAATCCGTATTTGAC (site TGGACACCTGT) | 0
62 | TGAACACCATGGACCGGTTTTCCCGGTAATCCGTATTTGAC (site TGTACACCTGT) | 0
63 | TGAAGAGCATGGACCGGTTTTCCCGGTAATCCGTATTTGCA (site TGAAGAGCTTG) | 2.54
64 | TGAAGCGCATGGACCGGTTTTCCCGGTAATCCGTATTTGCT (site TGAAGCGCTAG) | 2.01
65 | TGAATACCATGGACCGGTTTTCCCGGTAATCCGTATTTGTG (site TGAATACCTCA) | 0.0076
66 | TGACATTCATGGACCGGTTTTCCCGGTAATCCGTATTTGCT (site TGACATTCTAG) | 1.97
67 | TGACCTCCATGGACCGGTTTTCCCGGTAATCCGTATTTGAA (site TGACCTCCTTT) | 0.019
68 | TGACTATCATGGACCGGTTTTCCCGGTAATCCGTATTTGTA (site TGACTATCTTA) | 2.58
69 | TGACTCACATGGACCGGTTTTCCCGGTAATCCGTATTTGAC (site TGACTCACTGT) | 2.68
70 | TGAGAGGCATGGACCGGTTTTCCCGGTAATCCGTATTTGTA (site TGAGAGGCTTA) | 2.3
71 | TGAGATACATGGACCGGTTTTCCCGGTAATCCGTATTTGAG (site TGAGATACTCT) | 2.26
72 | TGAGGACCATGGACCGGTTTTCCCGGTAATCCGTATTTGCA (site TGAGGACCTTG) | 0
73 | TGAGTTTCATGGACCGGTTTTCCCGGTAATCCGTATTTGAG (site TGAGTTTCTCT) | 1.89
74 | TGATAGACATGGACCGGTTTTCCCGGTAATCCGTATTTGGA (site TGATAGACTTC) | 0.865
75 | TGATCAACATGGACCGGTTTTCCCGGTAATCCGTATTTGCT (site CGATCATCTAG) | 0
